In ChEMBL document CHEMBL1123987, “Oral absorption of cephalosporin antibiotics. 3. Synthesis and biological properties of 7 alpha-methoxy-7 beta-(arylacetamido)-3-chloro-3-cephem-4-carboxylic acids” (1988):
In brackets after ≈: the same amount, converted by molar mass.

How the values were obtained:
Assay type in all cases: functional
Streptococcus pyogenes = experiment: Minimum inhibitory concentration against Streptococcus pyogenes
Escherichia coli = experiment: Minimum inhibitory concentration against Escherichia coli
Haemophilus influenzae [1] = experiment: Minimum inhibitory concentration against Haemophilus influenzae (beta-lactamase (+))
Staphylococcus aureus = experiment: Minimum inhibitory concentration against Staphylococcus aureus
Streptococcus pneumoniae = experiment: Minimum inhibitory concentration against Streptococcus pneumoniae
Haemophilus influenzae [2] = experiment: Minimum inhibitory concentration against H influenzae(beta-lactamase (-))
Haemophilus influenzae [3] = experiment: Minimum inhibitory concentration against H influenzae (beta-lactamase (-))

SMILES | MIC (Streptococcus pyogenes) [mg/L] | MIC (Escherichia coli) [mg/L] | MIC (Haemophilus influenzae [1]) [mg/L] | MIC (Staphylococcus aureus) [mg/L] | MIC (Streptococcus pneumoniae) [mg/L] | MIC (Haemophilus influenzae [2]) [mg/L] | MIC (Haemophilus influenzae [3]) [mg/L]
CO[C@@]1(NC(=O)COc2ccccc2)C(=O)N2C(C(=O)O)=C(Cl)CSC21 (some centres not stated) | 128 (≈ 321 µM) | > 128 | > 128 | > 128 | 128 (≈ 321 µM) | > 128 | 
N[C@@H](C(=O)N[C@@H]1C(=O)N2C(C(=O)O)=C(Cl)CS[C@H]12)c1ccccc1.O [CEFACLOR] | 0.25 | 1 | 2 | 1 | 0.5 | 1 | 
CO[C@@]1(NC(=O)Cc2cccs2)C(=O)N2C(C(=O)O)=C(Cl)CSC21 (some centres not stated) | 128 (≈ 329 µM) | > 128 | > 128 | > 128 | 128 (≈ 329 µM) | > 128 | 
O=C(Cc1cccs1)N[C@@H]1C(=O)N2C(C(=O)O)=C(Cl)CSC12 (some centres not stated) | 0.125 (≈ 0.348 µM) | 4 (≈ 11.1 µM) | 1 (≈ 2.79 µM) | 0.5 (≈ 1.39 µM) | 0.125 (≈ 0.348 µM) | 1 (≈ 2.79 µM) | 

Further lines, results first:

MIC (Streptococcus pyogenes) [mg/L] | MIC (Escherichia coli) [mg/L] | MIC (Haemophilus influenzae [1]) [mg/L] | MIC (Staphylococcus aureus) [mg/L] | MIC (Streptococcus pneumoniae) [mg/L] | MIC (Haemophilus influenzae [2]) [mg/L] | MIC (Haemophilus influenzae [3]) [mg/L] | SMILES
1 (≈ 2.47 µM) | 8 (≈ 19.8 µM) | 16 (≈ 39.5 µM) | 16 (≈ 39.5 µM) | 0.5 (≈ 1.24 µM) | 16 (≈ 39.5 µM) |  | CO[C@@]1(NC(=O)Cc2csc(N)n2)C(=O)N2C(C(=O)O)=C(Cl)CSC21 (some centres not stated)
0.125 (≈ 0.339 µM) | 64 (≈ 174 µM) | 2 (≈ 5.42 µM) | 0.25 (≈ 0.678 µM) | 0.25 (≈ 0.678 µM) |  | 2 (≈ 5.42 µM) | O=C(COc1ccccc1)N[C@@H]1C(=O)N2C(C(=O)O)=C(Cl)CSC12 (some centres not stated)
0.125 (≈ 0.333 µM) | 1 (≈ 2.67 µM) | 1 (≈ 2.67 µM) | 1 (≈ 2.67 µM) | 0.5 (≈ 1.33 µM) | 1 (≈ 2.67 µM) |  | Nc1nc(CC(=O)N[C@@H]2C(=O)N3C(C(=O)O)=C(Cl)CSC23)cs1 (some centres not stated)
